According to US12686691B2, “Crystalline form of SHP2 inhibitor, and composition thereof, preparation method therefor, and use thereof” (ETERN BIOPHARMA (SHANGHAI) CO., LTD., priority 2020, dated 2026):
Blank lines part the entries; values can stand above or below the compound they belong to.

Key:
Type in all cases: physicochemical
[1] = Variable temperature XRPD (heating under nitrogen protection, XRPD after cooling)
Procedure: (§1) Instruments and Experimental Conditions Used in the Example • 1. Differential Scanning Calorimeter, DSC • Instrument model: Mettler Toledo DSC3+Stare e System • Purge gas: nitrogen (50 mL/min) • Ramping rate: 10.0° C./min • Temperature range: 20-250° C. • 2. X-Ray Powder Diffraction, XRPD • Instrument model: Rigaku UltimalV X-ray powder diffractometer • Ray: monochromatic Cu—Kα ray (λ=1.5418 Å) • Scanning mode: θ/2θ, scanning range: 3-45° • Voltage: 40 kV, current: 40 mA • 3. Thermogravimetric Analysis, TGA • Instrument model: Mettler Toledo TGA2STAR eSystem • Purge gas: nitrogen • Ramping rate: 10.0° C./min • Temperature range: 20-250° C. • 4. Dynamic Vapour Sorption, DVS • Instrument model: TAQ5000VSA • Temperature: 25° C. • Solvent: water • Humidity change: 0-95-0-95-0% RH, step by 10%, less than 0.01% of mass change within […] as the judging standard • 4. HPLC Method • Instrument model: Agilent 1100 with VWD detector • Columns: poroshell 120 EC C18, 3.0 mm/50 mm/2.7 μm • Mobile phase: A: 0.03% NH4OH (25%~28%) in water • B: 0.03% NH4OH (25%~28%) in acetonitrile
The crystalline form A of Compound 1 was placed under nitrogen protection and heated to different temperatures (30° C., 92° C., 118° C., 132° C. and 175° C., respectively), then subjected to XRPD test after it was cooled.
The crystalline form B of Compound 1 was placed under nitrogen protection and heated to different temperatures (130° C. and 180° C., respectively), then subjected to XRPD test after it was cooled to room temperature.
The crystalline form C of Compound 1 was placed under nitrogen protection and heated to different temperatures (130° C. and 160° C., respectively), then subjected to XRPD test after it was cooled to room temperature.
The crystalline form D of Compound 1 was placed under nitrogen protection and heated to different temperatures (100° C. and 160° C., respectively), then subjected to XRPD test after it was cooled to room temperature.
The crystalline form E of Compound 1 was placed under nitrogen protection and heated to different temperatures (96° C. and 180° C., respectively), then subjected to XRPD test after it was cooled to room temperature.

[2] = Stability investigation of the crystalline form A (placement under temperature/humidity, XRPD and HPLC); conditions: for Crystalline form change: XRPD; for HPLC purity initial: before placement
Procedure: as §1
• Mobile Phase Flow Rate: 1.0 mL/min • Run time: 10.0 min • Injection volume: 2 μL • Detecting wavelength: UV, 254 nm • Column temperature: 25° C. • Injector temperature: RT • Diluent: acetonitrile:water=1:1 (v:v)
The crystalline form A of Compound 1 was placed under 60° C./closed condition for 24 hours, under 25° C./60% RH and 40° C./75% RH in an open state for one week, respectively. The physical and chemical stability of the sample was detected by XRPD and HPLC.

[3] = DVS hygroscopicity test
Procedure: as §1
Hygroscopicity of the crystalline form A of Compound 1 was evaluated by DVS test.

[4] = 40° C./75% RH, 1 week, open state
[5] = heated to 130° C. under nitrogen
[6] = heated to 180° C. under nitrogen
[7] = heated to 160° C. under nitrogen

crystalline form change during heating ([1]; heated to 30° C., 92° C., 118° C., 132° C. and 175° C. under nitrogen, XRPD after cooling): no crystalline form change
HPLC purity After placement ([2]; 25° C./60% RH, 1 week): 97.99 area %
HPLC purity Relative to initial ([2]; 25° C./60% RH, 1 week): 99.6%
Crystalline form change ([2]; 25° C./60% RH, 1 week): no crystalline form change
Crystalline form change ([2]; 25° C./60% RH, 1 week, listed as Crystalline form A): no
HPLC purity After placement [2, 4]: 97.89 area %
HPLC purity Relative to initial [2, 4]: 99.5%
Crystalline form change ([2]; 40° C./75% RH, 1 week, open state, listed as Crystalline form A): yes
HPLC purity After placement ([2]; 60° C./closed, 24 hours): 98.55 area %
HPLC purity Relative to initial ([2]; 60° C./closed, 24 hours): 99.9%
Crystalline form change ([2]; 60° C./closed, 24 hours): no crystalline form change
Crystalline form change ([2]; 60° C./closed, 24 hours, listed as Crystalline form A): no
chemical stability (HPLC) ([2]; all three stability test conditions): good chemical stability
purity maintained after placement (HPLC) ([2]; all three stability test conditions (25° C./60% RH 1 week, 40° C./75% RH 1 week, 60° C./closed 24 hours)): about 98%
HPLC purity initial ([2]; sample of the 25° C./60% RH and 40° C./75% RH 1 week tests): 98.41 area %
HPLC purity initial ([2]; sample of the 60° C./closed 24 hours test): 98.60 area %
stability (overall conclusion of the stability investigation) ([2]; conclusion from Examples 1.67 and 1.68): excellent stability
weight gain of moisture absorption ([3]; DVS, 80.0% RH, 25° C.): 1.88%
hygroscopicity ([3]; DVS, judged from weight gain at 80.0% RH): slight hygroscopicity
crystalline form before and after DVS test (XRPD) ([3]; XRPD before and after DVS): consistent
Compound: Nc1nccc(Sc2cnc(N3CCC4(CC3)Cc3ncccc3[C@H]4N)n3ccnc23)c1Cl [crystalline form A, (S)-1′-(8-((2-amino-3-chloropyridin-4-yl)thio)imidazo[1,2-c]pyrimidin-5-yl)-5,7-dihydrospiro[cyclopentadieno[b]pyridine-6,4′-piperidine]-5-amine]
Crystalline form change [2, 4]: only part of crystalline form A was converted to hydrate crystalline form B

crystalline form after heating and cooling to room temperature [1, 5]: converted into an amorphous form
crystalline form after heating and cooling to room temperature [1, 6]: converted to the crystalline form A
Compound: Nc1nccc(Sc2cnc(N3CCC4(CC3)Cc3ncccc3[C@H]4N)n3ccnc23)c1Cl [crystalline form B, (S)-1′-(8-((2-amino-3-chloropyridin-4-yl)thio)imidazo[1,2-c]pyrimidin-5-yl)-5,7-dihydrospiro[cyclopentadieno[b]pyridine-6,4′-piperidine]-5-amine]

crystalline form after heating and cooling to room temperature [1, 5]: converted into an amorphous form
crystalline form after heating and cooling to room temperature [1, 7]: converted to the crystalline form A
Compound: Nc1nccc(Sc2cnc(N3CCC4(CC3)Cc3ncccc3[C@H]4N)n3ccnc23)c1Cl [crystalline form C, (S)-1′-(8-((2-amino-3-chloropyridin-4-yl)thio)imidazo[1,2-c]pyrimidin-5-yl)-5,7-dihydrospiro[cyclopentadieno[b]pyridine-6,4′-piperidine]-5-amine]

crystalline form after heating and cooling to room temperature ([1]; heated to 100° C. under nitrogen): crystallinity was significantly reduced
Compound: Nc1nccc(Sc2cnc(N3CCC4(CC3)Cc3ncccc3[C@H]4N)n3ccnc23)c1Cl [crystalline form D, (S)-1′-(8-((2-amino-3-chloropyridin-4-yl)thio)imidazo[1,2-c]pyrimidin-5-yl)-5,7-dihydrospiro[cyclopentadieno[b]pyridine-6,4′-piperidine]-5-amine]
crystalline form after heating and cooling to room temperature [1, 7]: diffraction signal of the crystalline form A is observed

Compound: Nc1nccc(Sc2cnc(N3CCC4(CC3)Cc3ncccc3[C@H]4N)n3ccnc23)c1Cl [crystalline form E, (S)-1′-(8-((2-amino-3-chloropyridin-4-yl)thio)imidazo[1,2-c]pyrimidin-5-yl)-5,7-dihydrospiro[cyclopentadieno[b]pyridine-6,4′-piperidine]-5-amine]
crystalline form after heating and cooling to room temperature ([1]; heated to 96° C. under nitrogen): a small amount of diffraction signal of the crystalline form A is observed
crystalline form after heating and cooling to room temperature [1, 6]: completely converted to the crystalline form A
